Laboratory results published in PMC5555576, “Selective small-chemical inhibitors of protein arginine methyltransferase 5 with anti-lung cancer activity” (PLoS ONE, 2017).

What was measured:
[1] = test system: A549 cells; experiment: Cell growth by cell counting, A549; format: cell-based; conditions: for A549 cell growth inhibition: various concentrations and time points
Method: Lung cancer A549 (ATCC) and PC14 (ATCC) cells were cultured in minimum essential medium (Cellgro) with 10% (v/v) fetal bovine serum (FBS) (HyClone), 2% vitamins, 1% L-glutamine, 1% non-essential amino acids and 1% sodium pyruvate. For the treatment with identified compounds, cells (2, 000 cells/well) were seeded in 24-well plates in the medium containing 2% FBS. The fresh medium containing identified compounds was added 24 hours later. Cells were cultured for various times in a CO2 incubator and the cell numbers were counted. Each experiment was performed in triplicate.
A, Lung cancer A549 cells were cultured in the presence of various concentrations (μM) of identified compounds and growth inhibition was determined by cell counting at various time points. B, Lung cancer PC14 cells were cultured in the presence of DMSO or various concentrations of identified compounds and growth inhibition was determined by cell counting 2 days post the compound treatment. C, The serum concentrations of compound C9 after oral administration. Mice were sacrificed and blood samples were collected immediately before (0 h) and at 2, 4, 6 and 8h after compound administration.
Fig 8 The C9 analogue has improved PRMT5-inhibitory efficacy and oral drug availability. A, The chemical structure of the C9 analogue. B, Compound C9a inhibited methylation of SmD3 by PRMT5. The recombinant SmD3 (2 μg) was used as the substrate in the absence (lane 5) or presence of 1, 10 or 100 μM compounds as indicated. […] C, C9a has improved efficacy to inhibit lung cancer growth. A549 cells were cultured in the presence of various concentrations of C9 or C9a and growth inhibition was determined by cell counting 2 days post the compound treatment. […] Male BALB/c mice were randomized and administrated C9a by oral gavage and compound concentrations in blood samples were determined.

[2] = test system: A549 cells; experiment: Cellular permeability and stability by HPLC of cell extracts; format: in vitro ADME; conditions: for decrease of concentration inside the cells: 20 μM for 2 h, within 10 h after removal; for concentration inside cells compared with the medium: 2 h; for cell permeability: 2 hr in medium with compound
Method: Waters 2695 HPLC System and a C18 column (Symmetry, 3.6 x 75 mm) were used. The column was equilibrated with 10% acetonitrile and eluated with a linear gradient from 10% acetonitrile to 100% acetonitrile in 60 min. Compounds were dissolved in 10% acetonitrile and the purchased compounds (ChemBridge) were used as the standards.
We then determined whether the identified compounds are cell-permeable. Lung cancer A549 cells were cultured in medium containing various concentrations of the respective compound for 2 hr. Cells were harvested and washed with PBS. The compounds were extracted with ethyl acetate from cells and analyzed by HPLC with a C18 column using the purchased compound as the standard. Compounds C2, C5, C9 and C11 are cell-permeable (Fig 6A), which is consistent with their tPSAs <140 angstroms square (Table 1). […] We even noticed that the compound C5 crystalized inside the cells.
A, The cellular permeability of identified compounds. Lung cancer A549 cells were cultured in the presence of various concentrations of compounds for 2h and the compound concentrations in the cell were determined by HPLC chromatography with a C18 column. B, The cellular stability of identified compounds. Lung cancer A549 cells were cultured in the presence of compounds (20 μM) for 2 h and then the medium was removed. Cells were washed with the medium and cultured for additional 5 or 10 h after the compounds were removed. The compound concentrations in the cell were determined by HPLC chromatography with a C18 column. […] A549 cells were grown in the presence of DMSO or compound C5, C9 or C11 (20 μM). Histones were purified and analyzed by SDS-PAGE stained with Commassie blue (lanes 1–4, bottom) or by Western blot with anti-symmetric dimethyl arginine antibody (SYM10) (lanes 1–4, top). B-Raf was immunoprecipitated with anti-B-Raf antibody from whole cell lysates and submitted for Western blot analysis with anti-B-Raf (lanes 5 and 6, bottom) or anti-symmetric dimethyl arginine (lanes 5 and 6, top) antibody.

[3] = test system: A549 cells; experiment: BrdU incorporation assay; format: cell-based; conditions: 20 μM, 2 days
Method: A549 cells were infected with the lentivirus expressing NT or PRMT5 shRNA. A549 cells were grown in the presence of DMSO or compound C5, C9 or C11 (20 μM) for 2 days. A, Bromodeoxyuridine (BrdU) (BD Biosciences) incorporation assay. Cells were plated on a Chamber slide (BD falcon) and cultured in the presence of 10 μM BrdU for 4 h. The BrdU-positive cells (brown) were detected by immunostaining with the monoclonal anti-BrdU antibody (BD Biosciences) and observed under a microscope. B, Percentage of BrdU-positive cells in control, PRMT5-silencing or compound treated cells. The results represent the means of three independent experiments ± the standard deviation. ***, P<0.001. (TIF) Click here for additional data file.

[4] = test system: arginine methylation in histone H2A, histone H4 and B-Raf in A549 cells; experiment: Western blot of symmetrical arginine dimethylation of PRMT5 substrates in cells; format: cell-based; conditions: 20 μM, SYM10 antibody
Method: Histones were purified as reported previously. Briefly, cells (1–5 x 10^6) or lung tumors (10–100 mg) were lysated using a glass dounce in 1 ml of 1x Passive Lysis Buffer (Promega) and nuclear pellets were collected by centrifugation at 3,000 rpm for 5 min at 4 °C. The supernatant was discard and the pellets were washed with 1 ml of 1x Passive Lysis Buffer. Nuclear pellets were resuspended in 0.4 ml of the buffer (10 mM Trs-HCl, pH7.9, 0.2 mM EDTA, 1 mM DTT, 20% glycerol, 0.42 M KCl) and incubate for 30 min on ice, and centrifuged at 12,000 rpm for 10 min at 4 °C. The supernatant (histones extract) was transferred to a new tube and histones were precipitated by 20% trichloroacetic acid.
Protein extracts or histones (20 μg) were subjected to 10% or 15% sodium dodecyl sulfate-polyacrylamide gel electrophoresis, respectively then transferred to Immobilon-P membranes (Millipore). The blots were then probed for 2 hours with the primary antibody at dilutions of 1:500 (anti-symmetrical dimethylated arginine, SYM10, EMD Millipore), 1:1,000 (anti-B Raf, ab65050, Abcam) or 1:1,000 (anti-PRMT5, Abcam). The blots were then incubated with a horseradish peroxide-conjugated secondary antibody (1:5,000; Fischer Scientific) for 1.5 h. Immunoreactive proteins were detected using an enhanced chemiluminescence detection system (GE Healthcare) per the manufacturer’s instructions. Protein concentrations were determined using the Bradford protein assay reagent (Bio-Rad).
A, The cellular permeability of identified compounds. Lung cancer A549 cells were cultured in the presence of various concentrations of compounds for 2h and the compound concentrations in the cell were determined by HPLC chromatography with a C18 column. B, The cellular stability of identified compounds. […] The compound concentrations in the cell were determined by HPLC chromatography with a C18 column. […] Histones were purified and analyzed by SDS-PAGE stained with Commassie blue (lanes 1–4, bottom) or by Western blot with anti-symmetric dimethyl arginine antibody (SYM10) (lanes 1–4, top). […]

decrease of concentration inside the cells [2]	concentration inside cells compared with the medium [2]	cell permeability [2]	Compound	A549 cell growth inhibition [1]	cellular proliferation (BrdU) [3]	arginine methylation in histone H2A, histone H4 and B-Raf [4]	IC50 ([1]; Homo sapiens, A549 cells) [nM]	accumulation inside cells [2] [fold]	inhibition of growth of lung cancer cells compared to C9 ([1]; A549 cells, 2 days)
about 2 folds	higher than those in the medium	cell-permeable	CCn1c(=O)[nH]c2cc(C(=O)Nc3ccc(OC)cc3)ccc2c1=O [Compound C5]	inhibited A549 cell growth in a dosage- and time-dependent manner at sub μM concentrations	inhibited proliferation of lung cancer cells	significantly inhibited	–	–	–
–	–	–	Nc1cccc(Nc2ncnc3c2cnn3Cc2ccccc2)c1 [Compound C9a]	–	–	–	–	–	higher efficacy
about 2 folds	higher than those in the medium	cell-permeable	Cn1cc(C(c2ccc(O)c(O)c2O)c2cn(C)c3ccccc23)c2ccccc21 [Compound C11]	inhibited A549 cell growth in a dosage- and time-dependent manner at sub μM concentrations	inhibited proliferation of lung cancer cells	significantly inhibited	–	–	–

Compound	decrease of concentration inside the cells [2]	concentration inside cells compared with the medium [2]	cell permeability [2]	A549 cell growth inhibition [1]	cellular proliferation (BrdU) [3]	arginine methylation in histone H2A, histone H4 and B-Raf [4]	IC50 ([1]; Homo sapiens, A549 cells) [nM]	accumulation inside cells [2] [fold]	inhibition of growth of lung cancer cells compared to C9 ([1]; A549 cells, 2 days)
COc1ccc(Nc2ncnc3c2cnn3Cc2ccc(C)cc2)cc1 [Compound C9]	about 2 folds	higher than those in the medium	cell-permeable	inhibited A549 cell growth in a dosage- and time-dependent manner at sub μM concentrations	inhibited proliferation of lung cancer cells	significantly inhibited	~1000	5	–
